US12275687B2 (priority 2017, dated 2025)

What was measured:
BLT1-T4L = assay: Competition assay of ligands against ^3H-LTB4, BLT1-T4L expressed in P. pastoris; type: binding, guinea pig
Excerpt: For the ligand binding assay of BLT1-T4Ls, the T4L cDNA was integrated into the cDNA, encoding the newly generated thermostable BLT1 mutant with the additional mutation V212A, by the consensus method (residues 1-14 deleted and H83G/K88G/V212A/S309A mutations), with the α-factor PrePro signal sequence and the FLAG tag at the N-terminal, and the PreScission site and the His6 tag at the C-terminal of BLT1 (Hori T. et al., 2010, supra) in the pPIC3.5K vector, using the In-Fusion enzyme (FIG. 7A). The expression vectors were introduced into the yeast Pichia pastoris using an EasyComp kit (Thermo Fisher Scientific). BLT1-T4Ls were expressed in 10 ml cultures, and the membrane fraction was prepared as described previously (Hori T. et al., 2010, supra; Hon T. et al., 2015, supra).
For the evaluation of the ligand-binding activity of the BLT1 mutants and BLT1-T4Ls, a ^3H-LTB4 binding assay was performed using the BLT1-expressing membrane fractions of COS-7, HEK293, or P. pastoris cells, as described previously (Hori T. et al., 2010, supra; Hori T. et al., 2015, supra). For the evaluation of the thermostability, the membrane fraction was heat-treated before the ^3H-LTB4 binding assay.

wild-type BLT1 = molecular target: T1, wild-type BLT1 (Cavia porcellus, UniProt H0VYV8); assay: Competition binding assay of benzamidine and NaCl to 0.5 nM ^3H-LTB4 (allosteric modulation titration analysis); parameters: species or system guinea pig
T1 construct: expressed in transfected cells; host or cells: HEK293 (membrane fraction)
T1 sequence (H0VYV8 1-348): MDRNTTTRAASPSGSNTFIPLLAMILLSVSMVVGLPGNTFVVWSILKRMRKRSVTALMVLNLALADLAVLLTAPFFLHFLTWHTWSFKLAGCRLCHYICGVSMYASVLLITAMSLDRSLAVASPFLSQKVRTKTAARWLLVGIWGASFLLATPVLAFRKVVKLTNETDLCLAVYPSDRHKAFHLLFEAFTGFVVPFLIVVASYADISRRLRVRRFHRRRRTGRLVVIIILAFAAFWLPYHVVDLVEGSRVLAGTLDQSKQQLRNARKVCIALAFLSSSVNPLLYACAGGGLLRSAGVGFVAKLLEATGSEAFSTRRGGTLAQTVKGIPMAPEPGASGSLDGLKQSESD
Excerpt: Each point (±s.e.m.) indicates the mean value of three independent experiments, each with triplicate reactions. […] Each point (±s.e.m.) indicates the mean value of three independent experiments, each with triplicate reactions. […] Each point (±s.e.m.) indicates the mean value of triplicate reactions. For the evaluation of the thermostabilities of guinea pig BLT1 mutants designed by the consensus method (FIG. 8A), point mutations were introduced using a QuikChange kit (Agilent) to the previously constructed thermostabilized BLT1 […] deleted, […] mutations, and an N-terminal FLAG-tag) in the pcDNA3 vector (Hori, T. et al., Protein Expr. Purif. 72 (2010) 66-74; Hori, T. et al., Biochem. Biophys. Rep. 4 (2015) 243-249). The expression vectors encoding the BLT1 mutants were transfected into COS-7 cells with Lipofectamine 2000. For the analysis of the BIIL260 binding residues of BLT1, point mutations were introduced, using the In-Fusion enzyme (Clontech), into the wild-type BLT1 cDNA with the N-terminal FLAG-tag in the pcDNA3 vector. The expression vectors were transfected into HEK293 cells, using polyethyleneimine. […] The BLT1 mutants were transiently expressed for three days at 37° C. The cells were washed with PBS, harvested with PBS-EDTA, disrupted with a sonicator, and centrifuged at 800×g for 5 min. The supernatant was further ultra-centrifuged at 100,000×g for 60 min, and the precipitate was collected. For the evaluation of the ligand-binding activity of the BLT1 mutants and BLT1-[…], a ^3H-LTB4 binding assay was performed using the BLT1-expressing membrane fractions of COS-7, HEK293, or P. pastoris cells, as described previously (Hori T. et al., 2010, supra; Hori T. et al., 2015, supra). For the evaluation of the thermostability, the membrane fraction was heat-treated before the ^3H-LTB4 binding assay. […] For all of the pharmacological analyses, nonlinear regression curve fitting was performed using Prism 5 (Graph Pad Software).

[1] = cooperative factor between ^3H-LTB4 and the modulator

| Ki (BLT1-T4L) | Compound | logIC50 (BLT1-T4L; log value (negative)) | level of the LTB4-BLT1 binding (wild-type BLT1; FIG. 3A) | logα (wild-type BLT1; [1]) | α (wild-type BLT1; [1]) |
| --- | --- | --- | --- | --- | --- |
| 148 nM | CCOC(=O)NC(=N)c1ccc(OCc2cccc(COc3ccc(C(C)(C)c4ccc(O)cc4)cc3)c2)cc1 | −6.7 | – | – | – |
| – | [Cl-].[Na+] [NaCl] | – | decreased in a sodium ion concentration-dependent manner | −1.5 | (α = 0.035) |
